Active and inactive are the calls of the source. No cut-off for these calls is given here.
What was measured:
[1] = test system: Stenotrophomonas maltophilia; experiment: Antibacterial activity against Stenotrophomonas maltophilia assessed as bacterial growth inhibition; type: functional
Staphylococcus aureus [2] = experiment: Antibacterial activity against methicillin-resistant Staphylococcus aureus assessed as bacterial growth inhibition; type: functional
Escherichia coli [3] = experiment: Antibacterial activity against Escherichia coli assessed as bacterial growth inhibition; type: functional
Enterococcus faecalis [4] = experiment: Antibacterial activity against Enterococcus faecalis assessed as bacterial growth inhibition; type: functional
Staphylococcus aureus [5] = experiment: Antibacterial activity against methicillin-resistant Staphylococcus aureus assessed as bacterial growth inhibition incubated for 24 hrs by Luria-Bertani broth based method; type: functional
[6] = Selectivity index, ratio of HC50 for hemolytic activity in human RBC to MIC for antibacterial activity against methicillin-resistant Staphylococcus aureus assessed as bacterial growth inhibition; type: toxicity; conditions: human red blood cells
[7] = Hemolytic activity in human RBC assessed as hemolysis incubated for 1 hr; type: toxicity, cell-based, Erythrocyte; conditions: human red blood cells
Staphylococcus aureus [8] = experiment: In vivo antibacterial activity against methicillin-resistant Staphylococcus aureus infected in SPF Kunming mouse assessed as reduction in amount of bacteria measured per abscess at 10 mg/kg ,ip administered every 12 hrs for 3 consecutive days; type: functional; conditions: time 3 day
Escherichia coli [9] = experiment: Antibacterial activity against Escherichia coli assessed as bacterial growth inhibition incubated for 18 hrs by CLSI protocol based Mueller-Hinton broth assay; type: functional; conditions: Escherichia coli, read-out: MIC
Escherichia coli [10] = experiment: Antibacterial activity against carbapenems-resistant Escherichia coli expressing blaNDM-5 clinical isolates assessed as bacterial growth inhibition incubated for 18 hrs by CLSI protocol based Mueller-Hinton broth assay; type: functional
Staphylococcus aureus [11] = experiment: Bactericidal activity against methicillin-resistant Staphylococcus aureus assessed as decrease in viable count measured up to 4 hrs by time-killing kinetics assay; type: functional, organism-based; conditions: dose 2-4 µg/ml
[12] = Toxicity in HUVEC cells assessed as live cells by measuring increase in green fluorescence at 16 ug/ml incubated for 24 hrs by calcein AM and propidium iodide staining based fuorescence microscopic analysis; type: cell-based; conditions: human, dose 16 µg/ml
[13] = Toxicity in SPF Kunming mouse assessed as lethal dose administered for 3 days; conditions: in vivo, 72 h, time 3 day
[14] = Hemolytic activity in mammalian RBC assessed as hemolysis at 320 ug/ml incubated for 1 hr by microplate reader analysis; type: toxicity, cell-based, Erythrocyte; conditions: mammalia, mammalian red blood cells, at 320 µg/mL, read-out: Activity
Staphylococcus aureus [15] = experiment: Induction of morphological changes in methicillin-resistant Staphylococcus aureus assessed as appearance of wrinkled cell surface at 8 ug/ml incubated for 4 hrs by SEM analysis; type: functional, organism-based; conditions: dose 8.0 µg/ml
[16] = Selectivity index, ratio of HC50 for hemolytic activity in sheep RBC to IC50 for antibacterial activity against Salmonella enterica assessed as bacterial growth inhibition; conditions: sheep red blood cells
Staphylococcus aureus [17] = experiment: Antibacterial activity against methicillin-resistant Staphylococcus aureus assessed as bacterial growth inhibition in presence of phosphoethanolamine incubated for 18 hrs by checkerboard microdilution assay; type: functional, organism-based
[18] = Cytotoxicity against HUVEC cells assessed as reduction in cell viability incubated for 72 hrs by CCK8 assay; type: toxicity, cell-based; conditions: human
Pseudomonas aeruginosa = experiment: Antibacterial activity against carbapenems-resistant Pseudomonas aeruginosa expressing blaVIM-1 clinical isolates assessed as bacterial growth inhibition incubated for 18 hrs by CLSI protocol based Mueller-Hinton broth assay; type: functional
Staphylococcus aureus [19] = experiment: Induction of intracellular ROS accumulation in methicillin-resistant Staphylococcus aureus assessed as increase in fluorescence intensity incubated for 30 mins by DCFH-DA dye based fluorescence assay; type: functional, organism-based; conditions: dose 0.125-8 µg/ml
Escherichia coli [20] = experiment: Antibacterial activity against carbapenems-resistant Escherichia coli expressing blaNDM-9 clinical isolates assessed as bacterial growth inhibition incubated for 18 hrs by CLSI protocol based Mueller-Hinton broth assay; type: functional
[21] = Toxicity in HUVEC cells assessed as morphological changes at 16 ug/ml incubated for 24 hrs by optical microscopy imaging analysis; type: cell-based; conditions: human, dose 16 µg/ml
Staphylococcus aureus [22] = experiment: Induction of intracellular ROS accumulation in methicillin-resistant Staphylococcus aureus assessed as fold increase in fluorescence intensity at 0.5 ug/ml incubated for 30 mins by DCFH-DA dye based fluorescence assay; type: functional; conditions: dose 0.5 µg/ml
[23] = Metabolic stability in SPF Kunming mouse assessed as half life at 5 mg/kg/day, iv; type: ADME, organism-based; conditions: in vivo
Staphylococcus aureus [24] = experiment: In vivo antibacterial activity against methicillin-resistant Staphylococcus aureus infected in SPF Kunming mouse assessed as reduction in neutrophils in skin tissue at 10 mg/kg ,ip administered every 12 hrs for 3 consecutive days; type: functional, organism-based; conditions: time 3.0 day
Staphylococcus aureus [25] = experiment: Bactericidal activity against methicillin-resistant Staphylococcus aureus assessed as decrease in viable count at 2 to 4 ug/ml by time-killing kinetics assay; type: functional, organism-based; conditions: dose 2-4 µg/ml, time <= 4.0 hrs, TDE = time-dependent effect
Staphylococcus aureus [26] = experiment: Antibacterial activity against methicillin-resistant Staphylococcus aureus assessed as resistance development at 0.5 to 1 ug/ml measured after 20 days by resistance development assay; type: functional, organism-based; conditions: dose 0.5-1 µg/ml, time 20.0 day
[27] = test system: Stenotrophomonas maltophilia; experiment: Antibacterial activity against Stenotrophomonas maltophilia assessed as bacterial growth inhibition incubated for 18 hrs by CLSI protocol based Mueller-Hinton broth assay; type: functional; conditions: Stenotrophomonas maltophilia, read-out: MIC
Staphylococcus aureus [28] = experiment: Antibacterial activity against methicillin-resistant Staphylococcus aureus assessed as bacterial growth inhibition in presence of phosphatidylglycerol incubated for 18 hrs by checkerboard microdilution assay; type: functional, organism-based
Staphylococcus aureus [29] = experiment: Antibacterial activity against methicillin-resistant Staphylococcus aureus clinical isolates assessed as bacterial growth inhibition incubated for 18 hrs by CLSI protocol based Mueller-Hinton broth assay; type: functional
[30] = Selectivity index, ratio of HC50 for hemolytic activity in sheep RBC to IC50 for antibacterial activity against Enterococcus faecalis assessed as bacterial growth inhibition; type: toxicity; conditions: sheep red blood cells
Staphylococcus aureus [31] = experiment: Antibacterial activity against methicillin-resistant Staphylococcus aureus assessed as bacterial growth inhibition in presence of phosphatidylcholine incubated for 18 hrs by checkerboard microdilution assay; type: functional, organism-based
Enterococcus faecalis [32] = experiment: Antibacterial activity against Enterococcus faecalis assessed as bacterial growth inhibition incubated for 18 hrs by CLSI protocol based Mueller-Hinton broth assay; type: functional; conditions: Enterococcus faecalis, 18 h, read-out: MIC
Staphylococcus aureus [33] = experiment: Induction of morphological changes in methicillin-resistant Staphylococcus aureus assessed as appearance of shrunken cell surface at 8 ug/ml incubated for 4 hrs by SEM analysis; type: functional, organism-based; conditions: dose 8.0 µg/ml
Staphylococcus aureus [34] = experiment: Bactericidal activity against methicillin-resistant Staphylococcus aureus assessed as reduction in turbidity at 2 to 4 ug/ml measured after 6 hrs; type: functional, organism-based; conditions: dose 2-4 µg/ml
Enterococcus faecium = experiment: Antibacterial activity against Enterococcus faecium clinical isolates assessed as bacterial growth inhibition incubated for 18 hrs by CLSI protocol based Mueller-Hinton broth assay; type: functional
Staphylococcus aureus [35] = experiment: In vivo antibacterial activity against methicillin-resistant Staphylococcus aureus infected in SPF Kunming mouse assessed as reduction in amount of bacteria measure per abscess at 5 mg/kg ,ip administered every 12 hrs for 3 consecutive days; type: functional; conditions: time 3 day
Staphylococcus aureus [36] = experiment: Induction of cytoplasmic membrane depolarization in methicillin-resistant Staphylococcus aureus assessed as enhancement of fluorescence intensity measured at 1 min interval for 16 mins by DiSC3(5) dye based fluorescence method; type: functional, organism-based; conditions: dose 0.5-16 µg/ml
[37] = Hemolytic activity in sheep RBC assessed as hemolysis incubated for 1 hr by microplate reader method; type: toxicity, cell-based, Ovis aries, Erythrocyte; conditions: sheep red blood cells
[38] = Selectivity index, ratio of HC50 for hemolytic activity in sheep RBC to IC50 for antibacterial activity against Escherichia coli assessed as bacterial growth inhibition; type: toxicity; conditions: sheep red blood cells
Staphylococcus aureus [39] = experiment: Induction of cytoplasmic membrane depolarization in methicillin-resistant Staphylococcus aureus assessed as fold increase in fluorescence intensity at 16 ug/ml measured at 1 min interval for 16 mins by DiSC3(5) dye based fluorescence method; type: functional; conditions: dose 16 µg/ml
Staphylococcus aureus [40] = experiment: Antibacterial activity against methicillin-resistant Staphylococcus aureus assessed as bacterial growth inhibition incubated for 18 hrs by CLSI protocol based Mueller-Hinton broth assay; type: functional; conditions: Staphylococcus aureus, read-out: MIC
Citrobacter freundii = experiment: Antibacterial activity against carbapenems-resistant Citrobacter freundii expressing blaNDM-1 clinical isolates assessed as bacterial growth inhibition incubated for 18 hrs by CLSI protocol based Mueller-Hinton broth assay; type: functional
Staphylococcus aureus [41] = experiment: Antibacterial activity against methicillin-resistant Staphylococcus aureus assessed as fold decrease in MIC in presence of NAC incubated for 18 hrs by CLSI protocol based Mueller-Hinton broth assay; type: functional
Escherichia coli [42] = experiment: Antibacterial activity against carbapenems-resistant Escherichia coli expressing blaNDM-3 clinical isolates assessed as bacterial growth inhibition incubated for 18 hrs by CLSI protocol based Mueller-Hinton broth assay; type: functional
[43] = Selectivity index, ratio of HC50 for hemolytic activity in sheep RBC to MIC for antibacterial activity against methicillin-resistant Staphylococcus aureus assessed as bacterial growth inhibition; type: toxicity; conditions: sheep red blood cells

CCCCCCN(CCCCCCCCCCCCN(CCCCCC)C(=O)[C@@H](N)CCCCN)C(=O)[C@@H](N)CCCCN.Cl.Cl.Cl.Cl
MIC [1]: 1 µg/mL | MIC (Staphylococcus aureus [2]): 2 µg/mL | MIC (Escherichia coli [3]): 1 µg/mL | MIC (Enterococcus faecalis [4]): 1 µg/mL

CCCCCCCC[N+](C)(C)CC(=O)NCCCCCCNC(=O)C[N+](C)(C)CCCCCCCC.[Br-].[Br-]
MIC (Staphylococcus aureus [5]): 1.9 µg/mL | selectivity ratio [6]: 410 | HC50 at 1 h [7]: 780 µg/mL

CCCCCCN(CCCOc1ccccc1-c1ccccc1OCCCN(CCCCCC)C(=O)[C@@H](N)CCCCN)C(=O)[C@@H](N)CCCCN.Cl.Cl.Cl.Cl
Activity (Staphylococcus aureus [8]): 46773.51 CFU | MIC (Escherichia coli [9]): 2 µg/mL | MIC (Escherichia coli [10]): 2 µg/mL | Activity (Staphylococcus aureus [11]): Dose-Dependent Effect | Activity [12]: Non-Toxic | LD50 [13]: > 200 mg/kg/day | hemolysis at 1 h, 320 ug/ml [14]: < 1% | Activity (Staphylococcus aureus [15]): Active | selectivity ratio [16]: > 500 | inhibition (Staphylococcus aureus [17]): inactive | CC50 at 72 h [18]: 24.2 µg/mL | MIC (Pseudomonas aeruginosa): 2 µg/mL | Activity (Staphylococcus aureus [19]): Dose-Dependent Effect | MIC (Escherichia coli [20]): 2 µg/mL | Activity [21]: Non-Toxic | fold change (FC) (Staphylococcus aureus [22]): 3.4 | half-life [23]: 4.21 h | Activity (Staphylococcus aureus [24]): Active | Activity (Staphylococcus aureus [25]): Tde | Activity (Staphylococcus aureus [26]): Active | MIC [27]: 2 µg/mL | inhibition (Staphylococcus aureus [28]): Active | MIC50 (Staphylococcus aureus [29]): 1 µg/mL | MIC90 (Staphylococcus aureus [29]): 2 µg/mL | selectivity ratio [30]: > 2000 | inhibition (Staphylococcus aureus [31]): inactive | MIC (Enterococcus faecalis [32]): 0.5 µg/mL | Activity (Staphylococcus aureus [33]): Active | Activity (Staphylococcus aureus [34]): Active | MIC50 (Enterococcus faecium): 1 µg/mL | MIC90 (Enterococcus faecium): 2 µg/mL | Activity (Staphylococcus aureus [35]): 758577.6 CFU | Activity (Staphylococcus aureus [36]): Active | HC50 at 1 h [37]: > 1000 µg/mL | selectivity ratio [38]: > 500 | fold change (FC) (Staphylococcus aureus [39]): 10 | MIC (Staphylococcus aureus [40]): 0.5 µg/mL | MIC (Citrobacter freundii): 2 µg/mL | fold change (FC) (Staphylococcus aureus [41]): 16 | MIC (Escherichia coli [42]): 2 µg/mL | selectivity ratio [43]: > 2000

From ChEMBL document CHEMBL5338785, “Development of Aromatic-Linked Diamino Acid Antimicrobial Peptide Mimics with Low Hemolytic Toxicity and Excellent Activity against Methicillin-Resistant Staphylococcus aureus (MRSA)” (J Med Chem, 2023)
